Publication PMC6662822, “Rational drug-design approach supported with thermodynamic studies — a peptide leader for the efficient bi-substrate inhibitor of protein kinase CK2” (Scientific Reports, 2019)
Where a SMILES comes first, the peptide text is derived from it. Where no end group is shown, it is not given here. The star is where a group is joined. X1 = O=C(c1c(Br)c(Br)c(Br)c2nn[nH]c12)*

Experiments:
hCK2α [1] = target: T1, hCK2α (Homo sapiens, UniProt P68400); assay: Relaxation-filtered 1H NMR (transverse relaxation) of peptides in the presence of hCK2α; type: binding; conditions: for R2,f, relaxation rate in the presence of hCK2α: 25 μM hCK2α, 2.5 mM peptide (100-fold excess), 25 mM Tris-HCl pH 7, 0.25 M NaCl, 10% D2O, global two-exponential fit, higher = stronger binding; for R2,f, relaxation rate in the presence of hCK2α / R2,s, relaxation rate for the free peptide: 25 °C; for Relative binding to hCK2α, in words: relaxation-filtered NMR, compared with the other tested peptides; for R2,s, relaxation rate for the free peptide: same samples, slower component of the global two-exponential fit
T1 construct: His-tag; made in house
T1 sequence (P68400 whole entry): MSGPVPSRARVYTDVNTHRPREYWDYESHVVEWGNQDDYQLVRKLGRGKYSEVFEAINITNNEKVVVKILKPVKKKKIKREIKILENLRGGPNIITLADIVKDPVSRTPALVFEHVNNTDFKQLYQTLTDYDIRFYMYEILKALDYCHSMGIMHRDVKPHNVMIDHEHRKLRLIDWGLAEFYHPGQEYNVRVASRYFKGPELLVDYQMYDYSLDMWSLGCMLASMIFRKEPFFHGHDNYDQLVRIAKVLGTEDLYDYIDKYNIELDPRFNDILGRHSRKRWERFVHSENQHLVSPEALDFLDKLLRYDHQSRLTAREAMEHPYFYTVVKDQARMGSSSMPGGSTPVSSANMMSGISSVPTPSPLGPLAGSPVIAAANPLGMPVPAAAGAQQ
Description: NMR samples containing tested peptides and hCk2α were prepared in 25 mM Tris–HCl (pH 7, 0.25 M NaCl) buffer with 10% D2O. The protein concentration was 25 μM, and a 100-fold peptide excess (2.5 mM) was used throughout the studies.
The scoring of the peptides’ binding affinities towards hCK2α was done according to the results of ^1H transverse (T2) relaxation filtering experiment. All spectra were recorded at 25 °C on Bruker Avance 500 NMR spectrometer (11.7 T) using 18 delays (0, 1, 2, 3, 4, 5, 10, 15, 20, 25, 30, 35, 40, 45, 50, 100, 150 and 200 ms). The spectra of 7500 Hz spectral width, 16k data points each, were collected using 16 scans with 2.0 s recycling delay preceded by 8 dummy scans.
NMR data were further processed and analyzed with the SpinWorks software (version 4.2.8.0), using cosine-squared window function and Gaussian filter resulting in 0.3 Hz broadening with no solvent filter applied prior to Fourier transformation. We analyzed ^1H transverse relaxation rates of selected nuclei representative for each type of amino acid residues present in the tested peptides, i.e Hγ of Glu (2.3ppm), Hβ of Asp (2.8ppm), Hβ of Ser (3.8ppm), Hγ(CH3) of Thr (1.1 ppm) and Hε of Lys (2.9ppm), respectively. Additionally, the resonance signals of amide protons (8.2–8.9ppm) were also analyzed. We performed the relaxation-filtered experiment, with the relaxation delay varying in the range of 1 to 200 ms. Variation in the intensity of particular resonance signals were analyzed using the model of two-exponential decay (1):1 y=A1⋅exp(t∗R2,f)+A2⋅exp(t∗R2,s)+y0 where R2,s and R2,f are the transverse relaxation rates of the free and the fraction of the virtually bound peptide, respectively. For each peptide the global optimization procedure was applied for all identified resonance signals.

hCK2α [2] = target: T1, hCK2α; assay: ADP-Glo kinase assay, inhibitory activity towards human CK2α; type: biochemical
Description: The ADP-Glo kinase assay (Promega) was used to measure the inhibition effect of the tested compounds. The kinase assay was carried in 96-well plate in volume of 25 μl in 20 mM Tris–HCl (pH 7.5) buffer, containing 100 ng hCK2α (1 μl), 10 μM CK2 substrate peptide […] (Biaffin GmbH & Co KG), 10 μM ATP, 20 mM MgCl2 and 2.5 μl of serially diluted ligand in DMSO. The reaction was initiated with enzyme in and kept going for 20 min at 30 °C. Reaction was stopped by adding 25 μl of ADP-Glo reagent. After incubation at room temperature for 40 min (to consume the remaining […]) 50 μl of kinase detection reagent were added and incubated for additional 30 minutes to produce luminescence signal. Luminescence was measured with The SpectraMax iD3 Multi-Mode Microplate Reader (Molecular Devices).

| Compound | R2,f, relaxation rate in the presence of hCK2α (hCK2α [1]) [s⁻¹] | R2,s, relaxation rate for the free peptide (hCK2α [1]) [s⁻¹] | further results |
| --- | --- | --- | --- |
| DDTDDD-NH2 | 7.1 ± 0.8 |  | Relative binding to hCK2α, in words (hCK2α [1]): binds visibly weaker |
| NC(=O)[C@H](CCC(=O)O)NC(=O)[C@H](CCC(=O)O)NC(=O)[C@H](CCC(=O)O)NC(=O)[C@H](CO)NC(=O)[C@H](CCC(=O)O)NC(=O)[C@@H](N)CCCCNC(=O)c1c(Br)c(Br)c(Br)c2nn[nH]c12 [bi-substrate inhibitor] (H-K(X1)ESEEE-NH2) |  |  | Enhancement of inhibitory activity versus low-mass precursor 7-COOH-Br3Bt (hCK2α [2]; ratio of IC50 values): over 10 fold |
| EETDEE-NH2 | 15.4 ± 2.1 | 2.3 ± 0.5 |  |
| O=C(O)c1c(Br)c(Br)c(Br)c2nn[nH]c12 [7-COOH-Br3Bt] |  |  | IC50 (hCK2α [2]; ADP-Glo, 100 ng hCK2α, 10 μM RRRDDDSDDD, 10 μM ATP, 20 mM MgCl2, pH 7.5, 20 min 30 °C, global fit of three independent experiments): 8 ± 6.3 µM |
| DESEEE-NH2 [peptide named only in b23, possibly a misprint of DETEEE-NH2] |  |  | Relative binding to hCK2α, in words (hCK2α [1]): lower affinity |
| DETEEE-NH2 | 10.4 ± 1.6 | 2.2 ± 0.6 |  |
| EDTEEE-NH2 | 14.9 ± 2.5 | 1.5 ± 0.7 |  |

Further lines, with some results ahead:

| R2,f, relaxation rate in the presence of hCK2α (hCK2α [1]) [s⁻¹] | R2,s, relaxation rate for the free peptide (hCK2α [1]) [s⁻¹] | Compound | further results |
| --- | --- | --- | --- |
| 16.1 ± 2.3 | 2.2 ± 0.5 | EETEED-NH2 |  |
| 17.2 ± 4.8 | 3.7 ± 0.5 | EETEDE-NH2 |  |
